Data from paper PMC11650849, “Brain endothelial permeability, transport, and flow assessed over 10 orders of magnitude using the in situ brain perfusion technique” (Fluids and Barriers of the CNS, 2024).
Read-outs that look alike come from different tables or passages of the source.

Experiments:
[1] = Neutral fraction at pH 7.4 calculated from pKa; format: physicochemical; settings: neutral fraction at perfusion fluid pH 7.40, calculated from pKa
[2] = rat, in vivo
[3] = for Brain Kin: calculated at brain blood flow […] and rat serum fu; for Extraction (unbound) / Brain vascular extraction (total): calculated at brain blood flow […]; for Extraction (unbound): free drug; for Brain vascular extraction (total): with rat serum fu; for Maximal flow—90% extraction, PcS/2.3: pH 7.4
[4] = cited from earlier work; for Log Poct: octanol partition coefficient
[5] = cited from earlier work
[6] = In situ rat brain perfusion (brain uptake Kin, extraction E, BBB PS); settings: for Log Pc: Pc in cm/s; for Log Po: Po in cm/s; for Log PoS: PoS in mL/s/g; for PcS: cerebral cortex, S = physiological saline, AB = artificial blood
[7] = rat, brain
[8] = ref Hansch et al. [123], Avdeef [46] or other sources
[9] = facilitated nutrients, transporter not given

Nc1c(O)cccc1C(=O)O [3-hydroxy-anthranilic acid]
fn (%) [1]: 0.15%
Log Pc ([2]; pH 7.4): −5.88
Log PoS ([2]; pH 7.4): −1.05
Pc ([2]; pH 7.4): 1.31 ×10⁻⁶ cm/s
PcS ([2]; pH 7.4): 0.00013 mL/s/g
PoS ([2]; pH 7.4): 0.0886 mL/s/g
Log Po ([2]; pH 7.4): −3.05
Po ([2]; pH 7.4): 0.000886 cm/s
Brain Kin [3]: 0.000131 mL/s/g
Extraction (unbound) [3]: 0.54%
Brain vascular extraction (total) [3]: 0.54%
Log Poct [4, 8]: 1.05
Log Doct pH=7.4 [4, 8]: −1.78
fu,.p ([5]; rat in vivo measurements): 1.00

CC(N)=O [Acetamide]
fn (%) [1]: 100%

Cc1nnc2n1-c1ccc(Cl)cc1C(c1ccccc1)=NC2 [Alprasolam]
fn (%) [1]: 100%

Nc1ccccc1C(=O)O [Anthranilic acid]
fn (%) [1]: 0.33%
Log Poct [4, 8]: 1.21
Log Doct pH=7.4 [4, 8]: −1.27
fu,.p ([5]; rat in vivo measurements): 0.50
Log Pc [6]: −4.92
Log Po [6]: −2.44
Log PoS [6]: −0.44
Pc ([6]; S assumed 100 cm^2/g): 11.9 ×10⁻⁶ cm/s
Po ([6]; S assumed 100 cm^2/g): 3600 ×10⁻⁶ cm/s
PoS ([6]; brain vascular intrinsic PoS): 0.36 mL/s/g
PcS ([6]; flow 0.1–[…]): 0.0012 mL/s/g
PoS ([6]; intrinsic PS of neutral solute, PoS = PcS/fn, flow 0.1–[…]): 0.36 mL/s/g

CCCCO [Butanol]
fn (%) [1]: 100%
Pc [2]: 1470 ×10⁻⁶ cm/s
PcS [2]: 0.15 mL/s/g
PoS [2]: 0.13 mL/s/g
Po [2]: 0.00127 cm/s
Brain Kin [3]: 0.0229 mL/s/g
Extraction (unbound) [3]: 99.8%
Brain vascular extraction (total) [3]: 97.5%
Peak flow rate for 90% E ([3]; protein-free physiologic saline pH 7.4): 3.8 mL/min/g
Maximal flow—90% extraction, PcS/2.3 ([3]; protein-free saline): 0.064 mL/s/g
fu,.p ([5]; rat): 0.60

CN(C)CCCN1c2ccccc2Sc2ccc(Cl)cc21 [Chlorpromazine]
fn (%) [1]: 1.42%
half-life [7]: 61.1 min
BBB PcS ([2]; pH 7.4): 0.31 ± 0.05 mL/s/g
Extraction (Kin/F) ([2]; pH 7.4): 100%
Log Pc ([2]; pH 7.4): −2.51
Log PoS ([2]; pH 7.4): 1.30
Pc ([2]; pH 7.4): 3090 ×10⁻⁶ cm/s
PcS ([2]; pH 7.4): 0.31 mL/s/g
PoS ([2]; pH 7.4): 19.8 mL/s/g
Log Po ([2]; pH 7.4): −0.70
Po ([2]; pH 7.4): 0.20 cm/s
Brain Kin [3]: 0.00885 mL/s/g
Extraction (unbound) [3]: 100%
Brain vascular extraction (total) [3]: 36.6%
Maximal flow—90% extraction, PcS/2.3 ([3]; protein-free saline): 0.13 mL/s/g
fu,.p ([5]; rat in vivo measurements): 0.0354

C[C@]12CC[C@H](O)CC1=CC[C@@H]1[C@@H]2CC[C@]2(C)C(=O)CC[C@@H]12 [DHEA]
fn (%) [1]: 100%
Log Poct [4, 8]: 3.00
Log Doct pH=7.4 [4, 8]: 3.00
fu,.p ([5]; rat in vivo measurements): 0.05

CN(C)CCOC(c1ccccc1)c1ccccc1 [Diphenhydramine]
fn (%) [1]: 1.96%

CCO [Ethanol]
Brain Kin [3]: 0.0195 mL/s/g
Extraction (unbound) [3]: 83.0%
Brain vascular extraction (total) [3]: 81.4%
fu,.p ([5]; rat): 0.95

CN1C(=O)CN=C(c2ccccc2F)c2cc([N+](=O)[O-])ccc21 [Flunitrazepam]
fn (%) [1]: 100%
Best fit PcS ([2]; pH 7.4): 0.14 mL/s/g
Log Poct [4, 8]: 2.03
Log Doct pH=7.4 [4, 8]: 2.03
fu,.p ([5]; rat in vivo measurements): 0.19

CCCCCCO [Hexanol]
fn (%) [1]: 100%
Extraction (unbound) [3]: 99.9%
Brain vascular extraction (total) [3]: 89.1%
fu,.p ([5]; rat in vivo measurements): 0.30

O=C(O)c1cc(=O)c2ccccc2[nH]1 [Kynurenic acid]
fn (%) [1]: 4.6E−7%
Log Pc ([2]; pH 7.4): −5.92
Log PoS ([2]; pH 7.4): 0.42
PcS ([2]; pH 7.4): 0.00012 mL/s/g
PoS ([2]; pH 7.4): 2.60 mL/s/g
Log Po ([2]; pH 7.4): −1.58
Po ([2]; pH 7.4): 0.026 cm/s
fu,.p ([5]; rat in vivo measurements): 1.00

N[C@@H](CCC(=O)O)C(=O)O [L-Glutamate]
Log PS [6, 9]: −3.82
PS [6, 9]: 0.000151 mL/s/g

CC(=O)N[C@@H](CS)C(=O)O [N-acetyl-cysteine]
Extraction (unbound) [3]: 7.60E-05%
Brain vascular extraction (total) [3]: 7.60E-05%
Log Doct pH=7.4 [4]: −3.70
fu,.p ([5]; rat in vivo measurements): 1.00
Log Pc [6]: −7.74
Log Po [6]: −7.74
Log PoS [6]: −5.74
Pc ([6]; S assumed 100 cm^2/g): 0.0182 ×10⁻⁶ cm/s
PoS ([6]; brain vascular intrinsic PoS): 1.82e-06 mL/s/g
PcS ([6]; flow 0.1–[…]): 1.82e-06 mL/s/g

COc1ccc2cc([C@H](C)C(=O)O)ccc2c1 [Naproxen]
fn (%) [1]: 0.05%

NC(=O)c1cccnc1 [Nicotinamide]
fn (%) [1]: 100%
Log Poct [4, 8]: −0.34
Log Doct pH=7.4 [4, 8]: −0.34

O=C1Nc2ccc(Cl)cc2C(c2ccccc2)=NC1O (centres unmarked) [Oxazepam]
fn (%) [1]: 100%
fu,.p ([5]; rat): 0.17

CCCO [Propanol]
fn (%) [1]: 100%
fu,.p ([5]; rat): 0.74

O=C(O)c1cccnc1C(=O)O [Quinolinic acid]
Log Pc ([2]; pH 7.4): −7.77
Log PoS ([2]; pH 7.4): −3.13
Pc ([2]; pH 7.4): 0.017 ×10⁻⁶ cm/s
PcS ([2]; pH 7.4): 1.7e-06 mL/s/g
PoS ([2]; pH 7.4): 0.000743 mL/s/g
Log Po ([2]; pH 7.4): −5.13
Po ([2]; pH 7.4): 7.43e-06 cm/s
Brain Kin [3]: 0.00019 mL/s/g
Extraction (unbound) [3]: 0.01%
Brain vascular extraction (total) [3]: 0.0071%
Log Poct [4, 8]: −1.44
Log Doct pH=7.4 [4, 8]: −4.08
fu,.p ([5]; rat in vivo measurements): 1.00

CN1C(=O)C(O)N=C(c2ccccc2)c2cc(Cl)ccc21 (centres unmarked) [Temazepam]
fn (%) [1]: 100%
fu,.p ([5]; rat): 0.18

Cn1c(=O)c2[nH]cnc2n(C)c1=O [Theophylline]
fn (%) [1]: 100%
half-life [7]: 4.6 min
Log Poct [4, 8]: 0.00
Log Doct pH=7.4 [4, 8]: 0.00

CCCCNC(=O)NS(=O)(=O)c1ccc(C)cc1 [Tolbutamide]
fn (%) [1]: 0.61%
half-life [7]: 3.27 min

Cc1nnc2n1-c1ccc(Cl)cc1C(c1ccccc1Cl)=NC2 [Triasolam]
fn (%) [1]: 100%

NC(N)=O [Urea]
fn (%) [1]: 100%
Log Poct [4, 8]: −1.66
Log Doct pH=7.4 [4, 8]: −1.66
fu,.p ([5]; rat in vivo measurements): 1.00

O [Water]
BBB PcS [2]: 0.029 mL/s/g
Brain Equilibration t1/2, Measured [2]: 1 min
Kin Underestimate (linear regression vs two compartment model) [2]: 54%
Log Pc [2]: −3.54
Log PoS [2]: −1.54
Pc [2]: 287 ×10⁻⁶ cm/s
PcS [2]: 0.029 mL/s/g
PoS [2]: 0.0287 mL/s/g
Log Po [2]: −3.54
Po [2]: 0.000287 cm/s
Brain Equilibration t1/2, Calculated ([3]; plasma): 0.81 min
Log Poct [4, 8]: −0.59
Log Doct pH=7.4 [4, 8]: −0.59
fu,.p ([5]; rat in vivo measurements): 1.00

CC(C)(C)OC(=O)CCCc1ccc(N(CCCl)CCCl)cc1 [t-butyl chlorambucil]
fn (%) [1]: 100%
Brain Extraction (%) [2]: 24%
Log Pc [2]: −0.49
Log PoS [2]: 1.51
Pc [2]: 321000 ×10⁻⁶ cm/s
PcS [2]: 32.1 mL/s/g
PoS [2]: 32.1 mL/s/g
Log Po [2]: −0.49
Po [2]: 0.32 cm/s
Maximal flow—90% extraction, PcS/2.3 [3]: 14.0 mL/s/g
Log Poct [4, 8]: 5.24
Log Poct ([4]; ref Hansch et al. [123], Avdeef [46] or other sources, listed as t-butyl-chlorambucil): 5.2
Log Doct pH=7.4 [4, 8]: 5.24
fu,.p ([5]; rat in vivo measurements): 2.0E−03

Erythrosine B
fn (%) [1]: 7.8E−06%
Log Pc [2]: −5.19
Log PoS [2]: 3.92
Pc [2]: 6.53 ×10⁻⁶ cm/s
PcS [2]: 0.00065 mL/s/g
Log Po [2]: 1.92
Po [2]: 83.48 cm/s
Brain Kin [3]: 6.53e-06 mL/s/g
Extraction (unbound) [3]: 2.7%
Brain vascular extraction (total) [3]: 0.027%
Log Doct pH=7.4 [4]: −0.15
fu,.p ([5]; rat): 0.01
